In PubChem BioAssay AID1963958 (Molecular Pharmacology Branch, DTP, NCI, 2024):

Tested on: MDA-MB-231 multicell spheroids, viability
Assay: Anticancer human tumor MDA-MB-231 cell line growth inhibition [PI3K];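 also: spheroids exposed to agents for seven days before reading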;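 as to viability, T/C: percent of vehicle control luminescence with DMSO treated spheroids as 100%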
Details: for IC50: curve of first compound; for viability, T/C: stronger effect = lower value
Outline: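 Stroma-containing spheroids: tumor line, pooled-donor HUVEC, hMSC. Treatments: targeted agents with PI3K inhibitors. Dosing: clinically relevant, half-log spacing, 10 microM ceiling without known Cmax. Read-out: cell viability.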

[1] = second compound 0.00316 µM, first compound 0.0316 µM
[2] = second compound 0.00316 µM, first compound 0.1 µM
[3] = second compound 0.00316 µM, first compound 0.316 µM
[4] = second compound 0.00316 µM, first compound 1 µM
[5] = second compound 0.01 µM, first compound 0.0316 µM
[6] = second compound 0.01 µM, first compound 0.1 µM
[7] = second compound 0.01 µM, first compound 0.316 µM
[8] = second compound 0.01 µM, first compound 1 µM
[9] = second compound 0.0316 µM, first compound 0.0316 µM
[10] = second compound 0.0316 µM, first compound 0.1 µM
[11] = second compound 0.0316 µM, first compound 0.316 µM
[12] = second compound 0.0316 µM, first compound 1 µM
[13] = second compound 0.1 µM, first compound 0.0316 µM
[14] = second compound 0.1 µM, first compound 0.1 µM
[15] = second compound 0.1 µM, first compound 0.316 µM
[16] = second compound 0.1 µM, first compound 1 µM
[17] = second compound 0.316 µM, first compound 0.0316 µM
[18] = second compound 0.316 µM, first compound 0.1 µM
[19] = second compound 0.316 µM, first compound 0.316 µM
[20] = second compound 0.316 µM, first compound 1 µM
[21] = second compound 1 µM, first compound 0.0316 µM
[22] = second compound 1 µM, first compound 0.1 µM
[23] = second compound 1 µM, first compound 0.316 µM
[24] = second compound 1 µM, first compound 1 µM

Q: Which results are given for `CC(C)NCC(C(=O)N1CCN(c2ncnc3c2C(C)CC3O)CC1)c1ccc(Cl)cc1` (centres undefined) + COc1c(OCCCN2CCOCC2)ccc2c3n(c(=NC(=O)c4cnc(N)nc4)nc12)CCN3?
A: IC50 (second compound 0.00316 µM): 7260 nM; IC50 (second compound 0.01 µM): 4830 nM; IC50 (second compound 0.0316 µM): 1840 nM; IC50 (second compound 0.1 µM): < 31.6 nM; IC50 (second compound 0.316 µM): < 31.6 nM; IC50 (second compound 1 µM): < 31.6 nM; viability, T/C [1]: 96.1%; viability, T/C [2]: 93.7%; viability, T/C [3]: 83.5%; viability, T/C [4]: 74.6%; viability, T/C (second compound 0.00316 µM, first compound 3.16 µM): 59.3%; viability, T/C (second compound 0.00316 µM, first compound 10 µM): 46.3%; viability, T/C [5]: 81.8%; viability, T/C [6]: 81.4%; viability, T/C [7]: 69.2%; viability, T/C [8]: 62.6%; viability, T/C (second compound 0.01 µM, first compound 3.16 µM): 54.7%; viability, T/C (second compound 0.01 µM, first compound 10 µM): 43.4%; viability, T/C [9]: 61.6%; viability, T/C [10]: 59.1%; viability, T/C [11]: 55.8%; viability, T/C [12]: 56.3%; viability, T/C (second compound 0.0316 µM, first compound 3.16 µM): 45.6%; viability, T/C (second compound 0.0316 µM, first compound 10 µM): 33.9%; viability, T/C [13]: 48.5%; viability, T/C [14]: 48.7%; viability, T/C [15]: 45.6%; viability, T/C [16]: 39.3%; viability, T/C (second compound 0.1 µM, first compound 3.16 µM): 37.9%; viability, T/C (second compound 0.1 µM, first compound 10 µM): 28.9%; viability, T/C [17]: 32.9%; viability, T/C [18]: 34%; viability, T/C [19]: 31.2%; viability, T/C [20]: 30.1%; viability, T/C (second compound 0.316 µM, first compound 3.16 µM): 25.5%; viability, T/C (second compound 0.316 µM, first compound 10 µM): 18.7%; viability, T/C [21]: 23.8%; viability, T/C [22]: 23.7%; viability, T/C [23]: 24.9%; viability, T/C [24]: 23%; viability, T/C (second compound 1 µM, first compound 3.16 µM): 24.8%; viability, T/C (second compound 1 µM, first compound 10 µM): 18.8%

Q: Which results are given for `CCN1CCN(Cc2ccc(Nc3ncc(F)c(-c4cc(F)c5nc(C)n(C(C)C)c5c4)n3)nc2)CC1` + COc1c(OCCCN2CCOCC2)ccc2c3n(c(=NC(=O)c4cnc(N)nc4)nc12)CCN3?
A: IC50 (second compound 0.00316 µM): 195 nM; IC50 (second compound 0.01 µM): 65.4 nM; IC50 (second compound 0.0316 µM): 8.45 nM; IC50 (second compound 0.1 µM): < 3.16 nM; IC50 (second compound 0.316 µM): < 3.16 nM; IC50 (second compound 1 µM): < 3.16 nM; viability, T/C (second compound 0.00316 µM, first compound 0.00316 µM): 89%; viability, T/C (second compound 0.00316 µM, first compound 0.01 µM): 79.4%; viability, T/C [1]: 72.3%; viability, T/C [2]: 52.1%; viability, T/C [3]: 47.7%; viability, T/C [4]: 45.1%; viability, T/C (second compound 0.01 µM, first compound 0.00316 µM): 77.8%; viability, T/C (second compound 0.01 µM, first compound 0.01 µM): 66.2%; viability, T/C [5]: 57.2%; viability, T/C [6]: 46.5%; viability, T/C [7]: 39.7%; viability, T/C [8]: 40.2%; viability, T/C (second compound 0.0316 µM, first compound 0.00316 µM): 56%; viability, T/C (second compound 0.0316 µM, first compound 0.01 µM): 50.9%; viability, T/C [9]: 43.9%; viability, T/C [10]: 38.4%; viability, T/C [11]: 35.9%; viability, T/C [12]: 39.6%; viability, T/C (second compound 0.1 µM, first compound 0.00316 µM): 45.1%; viability, T/C (second compound 0.1 µM, first compound 0.01 µM): 40%; viability, T/C [13]: 33.4%; viability, T/C [14]: 27.9%; viability, T/C [15]: 31%; viability, T/C [16]: 38.1%; viability, T/C (second compound 0.316 µM, first compound 0.00316 µM): 30%; viability, T/C (second compound 0.316 µM, first compound 0.01 µM): 27.2%; viability, T/C [17]: 24.1%; viability, T/C [18]: 22.4%; viability, T/C [19]: 28%; viability, T/C [20]: 42.7%; viability, T/C (second compound 1 µM, first compound 0.00316 µM): 24.6%; viability, T/C (second compound 1 µM, first compound 0.01 µM): 22.5%; viability, T/C [21]: 22.4%; viability, T/C [22]: 25.5%; viability, T/C [23]: 43.7%; viability, T/C [24]: 83.2%
